Patent US6914045B2, “Glycopeptide antibiotics” (Wyeth Holdings Corporation, priority 2001, dated 2005)
Values after ≈ are worked out from the molar mass of the structure shown. Each block holds one compound with its values, some of them ahead of it.

Tests used:
Assay in all cases: in vitro antibacterial evaluation, MIC by broth dilution
Format in all cases: cell-based
Escherichia coli = settings: 18 hours at 35° C.
Method in brief: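 Broth dilution in Muller-Hinton II medium per NCCLS standard M7-A2, with an inoculum of 5×10^5 CFU/mL and antibiotic tested over 64-0.06 μg/mL. MIC was taken as the lowest concentration inhibiting visible growth.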

Streptococcus sp. = settings: broth dilution, 18 hours at 35° C.
Method: (§1) Methods for in vitro Antibacterial Evaluation (Table 1)
(§2) The minimum inhibitory concentration (MIC), the lowest concentration of the antibiotic which inhibits growth of the test organism, is determined by the broth dilution method using Muller-Hinton II […] (Baltimore Biological Laboratories) following the recommendations of the National Committee for Clinical Laboratory Standards [Methods for dilution antimicrobial susceptibility tests for bacteria that grow aerobically, approved standard M7-A2, National Committee for Clinical Laboratory Standards, Villanova, Pa.].
(§3) An inoculum level of 5×10^5 CFU/mL, and a range of antibiotic concentrations (64-0.06 μg/mL) is used. […] The test organisms include a spectrum of Gram-positive bacteria comprised of Staphylococcus sp., Streptococcus sp. and Enterococcus sp. These organisms include recent clinical isolates that are resistant to methicillin, penicillin and/or vancomycin.

Enterococcus sp. = settings: broth dilution, 18 hours at 35° C.
Method: as §1, §2, §3

Staphylococcus sp. = settings: broth dilution, 18 hours at 35° C.; for MIC Staphylococcus aureus (ATCC 29213): strain ATCC 29213; for MIC Staphylococcus aureus (GC 1131): strain GC 1131; for MIC Staphylococcus aureus (GC 3051): strain GC 3051; for MIC Staphylococcus aureus (GC 3053): strain GC 3053; for MIC Staphylococcus aureus (GC 4541): strain GC 4541; for MIC Staphylococcus aureus (GC 4542): strain GC 4542; for MIC Staphylococcus aureus-SMITH (GC 4543): strain GC 4543; for MIC Staphylococcus aureus (GC 4544): strain GC 4544; for MIC Staphylococcus aureus (GC 4545): strain GC 4545; for MIC Staphylococcus haemolyticus (GC 4546): strain GC 4546; for MIC Coagulase Negative Staphylococcus (GC 4547): strain GC 4547; for MIC Coagulase Negative Staphylococcus (GC 4548): strain GC 4548; for MIC Coagulase Negative Staphylococcus (GC 4549): strain GC 4549; for MIC Coagulase Negative Staphylococcus (GC 4551): strain GC 4551; for MIC Coagulase Negative Staphylococcus (GC 6257): strain GC 6257
Method: as §1, §2, §3

MIC Escherichia coli (ATCC 25922) (Escherichia coli; strain ATCC 25922, broth dilution): 16 µg/mL (≈ 14.3 µM)
MIC Escherichia coli (GC 4559) (Escherichia coli; strain GC 4559, broth dilution): 16 µg/mL (≈ 14.3 µM)
MIC Escherichia coli (GC 4560) (Escherichia coli; strain GC 4560, broth dilution): 4 µg/mL (≈ 3.59 µM)
MIC Streptococcus pneumoniae (ATCC 6301) (Streptococcus sp.; strain ATCC 6301): 32 µg/mL (≈ 28.7 µM)
MIC Streptococcus pneumoniae (GC 1894) (Streptococcus sp.; strain GC 1894): 32 µg/mL (≈ 28.7 µM)
MIC Streptococcus pyogenes (GC 4563) (Streptococcus sp.; strain GC 4563): 16 µg/mL (≈ 14.3 µM)
MIC Streptococcus agalactiae (GC 4564) (Streptococcus sp.; strain GC 4564): 32 µg/mL (≈ 28.7 µM)
MIC Streptococcus pneumoniae (GC 4565) (Streptococcus sp.; strain GC 4565): 32 µg/mL (≈ 28.7 µM)
MIC Enterococcus faecalis (ATCC 29212) (Enterococcus sp.; strain ATCC 29212): 32 µg/mL (≈ 28.7 µM)
MIC Enterococcus faecalis (GC 2242) (Enterococcus sp.; strain GC 2242): 32 µg/mL (≈ 28.7 µM)
MIC Enterococcus faecium (GC 2243) (Enterococcus sp.; strain GC 2243): 16 µg/mL (≈ 14.3 µM)
MIC Enterococcus faecalis (GC 2691) (Enterococcus sp.; strain GC 2691): 32 µg/mL (≈ 28.7 µM)
MIC Enterococcus faecalis (GC 3059) (Enterococcus sp.; strain GC 3059): 64 µg/mL (≈ 57.4 µM)
MIC Enterococcus faecalis (GC 4552) (Enterococcus sp.; strain GC 4552): 64 µg/mL (≈ 57.4 µM)
MIC Enterococcus faecalis (GC 4553) (Enterococcus sp.; strain GC 4553): 16 µg/mL (≈ 14.3 µM)
MIC Enterococcus faecalis (GC 4554) (Enterococcus sp.; strain GC 4554): 32 µg/mL (≈ 28.7 µM)
MIC Enterococcus faecium (GC 4556) (Enterococcus sp.; strain GC 4556): 64 µg/mL (≈ 57.4 µM)
MIC Enterococcus faecium (GC 4557) (Enterococcus sp.; strain GC 4557): 8 µg/mL (≈ 7.17 µM)
MIC Enterococcus avium (GC 4558) (Enterococcus sp.; strain GC 4558): 16 µg/mL (≈ 14.3 µM)
MIC Enterococcus faecalis (GC 6189) (Enterococcus sp.; strain GC 6189): 32 µg/mL (≈ 28.7 µM)
MIC Staphylococcus aureus (ATCC 29213) (Staphylococcus sp.): 8 µg/mL (≈ 7.17 µM)
MIC Staphylococcus aureus (GC 1131) (Staphylococcus sp.): 8 µg/mL (≈ 7.17 µM)
MIC Staphylococcus aureus (GC 3051) (Staphylococcus sp.): 8 µg/mL (≈ 7.17 µM)
MIC Staphylococcus aureus (GC 3053) (Staphylococcus sp.): 8 µg/mL (≈ 7.17 µM)
MIC Staphylococcus aureus (GC 4541) (Staphylococcus sp.): 8 µg/mL (≈ 7.17 µM)
MIC Staphylococcus aureus (GC 4542) (Staphylococcus sp.): 8 µg/mL (≈ 7.17 µM)
MIC Staphylococcus aureus-SMITH (GC 4543) (Staphylococcus sp.): 8 µg/mL (≈ 7.17 µM)
MIC Staphylococcus aureus (GC 4544) (Staphylococcus sp.): 8 µg/mL (≈ 7.17 µM)
MIC Staphylococcus aureus (GC 4545) (Staphylococcus sp.): 8 µg/mL (≈ 7.17 µM)
MIC Coagulase Negative Staphylococcus (GC 4547) (Staphylococcus sp.): 4 µg/mL (≈ 3.59 µM)
MIC Coagulase Negative Staphylococcus (GC 4548) (Staphylococcus sp.): 4 µg/mL (≈ 3.59 µM)
MIC Coagulase Negative Staphylococcus (GC 4549) (Staphylococcus sp.): 2 µg/mL (≈ 1.79 µM)
MIC Coagulase Negative Staphylococcus (GC 4551) (Staphylococcus sp.): 8 µg/mL (≈ 7.17 µM)
MIC Coagulase Negative Staphylococcus (GC 6257) (Staphylococcus sp.): 4 µg/mL (≈ 3.59 µM)
SMILES: CC(c1ccccc1)C1NC(=O)CNC(=O)C(CO)NC(=O)C(C(O)C2CNC(=N)N2C2OC(CO)C(O)C(O)C2O)NC(=O)C(C(O)C2CNC(=N)N2)NC(=O)C(Cc2ccc3oc(-c4ccc(N(C)C)cc4)nc3c2)NC1=O (stereo not drawn) [Example 29, Cyclo[3-[2-[4-(dimethylamino)phenyl]-1,3-benzoxazol-5-yl]alanyl-3-(2-iminoimidazolidin-4-yl)-seryl-3-(3-hexopyranosyl-2-iminoimidazolidin-4-yl)serylserylglycyl-β-methylphenyl-alanyl]]
MIC Staphylococcus haemolyticus (GC 4546) (Staphylococcus sp.): 4 µg/mL (≈ 3.59 µM)

MIC Escherichia coli (ATCC 25922) (Escherichia coli): 64 µg/mL (≈ 44.7 µM)
MIC Escherichia coli (GC 4559) (Escherichia coli): >64 µg/mL
MIC Escherichia coli (GC 4560) (Escherichia coli): 8 µg/mL (≈ 5.59 µM)
MIC Streptococcus agalactiae (GC 4564) (Streptococcus sp.): 0.12 µg/mL (≈ 0.0838 µM)
MIC Streptococcus pneumoniae (ATCC 6301) (Streptococcus sp.): <0.06 µg/mL
MIC Streptococcus pneumoniae (GC 1894) (Streptococcus sp.): <0.06 µg/mL
MIC Streptococcus pneumoniae (GC 4565) (Streptococcus sp.): <0.06 µg/mL
MIC Streptococcus pyogenes (GC 4563) (Streptococcus sp.): 0.12 µg/mL (≈ 0.0838 µM)
MIC Streptococcus pneumoniae (ATCC 6301) (Streptococcus sp.; inoculum 5×10^5 CFU/mL, strain ATCC 6301): <0.06 µg/mL
MIC Streptococcus pneumoniae (GC 1894) (Streptococcus sp.; inoculum 5×10^5 CFU/mL, strain GC 1894): <0.06 µg/mL
MIC Streptococcus pyogenes (GC 4563) (Streptococcus sp.; inoculum 5×10^5 CFU/mL, strain GC 4563): 0.12 µg/mL (≈ 0.0838 µM)
MIC Streptococcus agalactiae (GC 4564) (Streptococcus sp.; inoculum 5×10^5 CFU/mL, strain GC 4564): 0.12 µg/mL (≈ 0.0838 µM)
MIC Streptococcus pneumoniae (GC 4565) (Streptococcus sp.; inoculum 5×10^5 CFU/mL, strain GC 4565): <0.06 µg/mL
MIC Enterococcus avium (GC 4558) (Enterococcus sp.): 4 µg/mL (≈ 2.79 µM)
MIC Enterococcus faecalis (ATCC 29212) (Enterococcus sp.): 8 µg/mL (≈ 5.59 µM)
MIC Enterococcus faecalis (GC 2242) (Enterococcus sp.): 8 µg/mL (≈ 5.59 µM)
MIC Enterococcus faecalis (GC 2691) (Enterococcus sp.): 8 µg/mL (≈ 5.59 µM)
MIC Enterococcus faecalis (GC 3059) (Enterococcus sp.): 8 µg/mL (≈ 5.59 µM)
MIC Enterococcus faecalis (GC 4552) (Enterococcus sp.): 8 µg/mL (≈ 5.59 µM)
MIC Enterococcus faecalis (GC 4553) (Enterococcus sp.): 8 µg/mL (≈ 5.59 µM)
MIC Enterococcus faecalis (GC 4554) (Enterococcus sp.): 8 µg/mL (≈ 5.59 µM)
MIC Enterococcus faecalis (GC 6189) (Enterococcus sp.): 8 µg/mL (≈ 5.59 µM)
MIC Enterococcus faecium (GC 2243) (Enterococcus sp.): 8 µg/mL (≈ 5.59 µM)
MIC Enterococcus faecium (GC 4556) (Enterococcus sp.): 8 µg/mL (≈ 5.59 µM)
MIC Enterococcus faecium (GC 4557) (Enterococcus sp.): 8 µg/mL (≈ 5.59 µM)
MIC Enterococcus faecalis (ATCC 29212) (Enterococcus sp.; inoculum 5×10^5 CFU/mL, strain ATCC 29212): 8 µg/mL (≈ 5.59 µM)
MIC Enterococcus faecalis (GC 2242) (Enterococcus sp.; inoculum 5×10^5 CFU/mL, strain GC 2242): 8 µg/mL (≈ 5.59 µM)
MIC Enterococcus faecium (GC 2243) (Enterococcus sp.; inoculum 5×10^5 CFU/mL, strain GC 2243): 8 µg/mL (≈ 5.59 µM)
MIC Enterococcus faecalis (GC 2691) (Enterococcus sp.; inoculum 5×10^5 CFU/mL, strain GC 2691): 8 µg/mL (≈ 5.59 µM)
MIC Enterococcus faecalis (GC 3059) (Enterococcus sp.; inoculum 5×10^5 CFU/mL, strain GC 3059): 8 µg/mL (≈ 5.59 µM)
MIC Enterococcus faecalis (GC 4552) (Enterococcus sp.; inoculum 5×10^5 CFU/mL, strain GC 4552): 8 µg/mL (≈ 5.59 µM)
MIC Enterococcus faecalis (GC 4553) (Enterococcus sp.; inoculum 5×10^5 CFU/mL, strain GC 4553): 8 µg/mL (≈ 5.59 µM)
MIC Enterococcus faecalis (GC 4554) (Enterococcus sp.; inoculum 5×10^5 CFU/mL, strain GC 4554): 8 µg/mL (≈ 5.59 µM)
MIC Enterococcus faecium (GC 4556) (Enterococcus sp.; inoculum 5×10^5 CFU/mL, strain GC 4556): 8 µg/mL (≈ 5.59 µM)
MIC Enterococcus faecium (GC 4557) (Enterococcus sp.; inoculum 5×10^5 CFU/mL, strain GC 4557): 8 µg/mL (≈ 5.59 µM)
MIC Enterococcus avium (GC 4558) (Enterococcus sp.; inoculum 5×10^5 CFU/mL, strain GC 4558): 4 µg/mL (≈ 2.79 µM)
MIC Enterococcus faecalis (GC 6189) (Enterococcus sp.; inoculum 5×10^5 CFU/mL, strain GC 6189): 8 µg/mL (≈ 5.59 µM)
MIC Staphylococcus aureus (ATCC 29213) (Staphylococcus sp.): 4 µg/mL (≈ 2.79 µM)
MIC Staphylococcus aureus (GC 1131) (Staphylococcus sp.): 8 µg/mL (≈ 5.59 µM)
MIC Staphylococcus aureus (GC 3051) (Staphylococcus sp.): 4 µg/mL (≈ 2.79 µM)
MIC Staphylococcus aureus (GC 3053) (Staphylococcus sp.): 4 µg/mL (≈ 2.79 µM)
MIC Staphylococcus aureus (GC 4541) (Staphylococcus sp.): 8 µg/mL (≈ 5.59 µM)
MIC Staphylococcus aureus (GC 4542) (Staphylococcus sp.): 4 µg/mL (≈ 2.79 µM)
MIC Staphylococcus aureus-SMITH (GC 4543) (Staphylococcus sp.): 4 µg/mL (≈ 2.79 µM)
MIC Staphylococcus aureus (GC 4544) (Staphylococcus sp.): 8 µg/mL (≈ 5.59 µM)
MIC Staphylococcus aureus (GC 4545) (Staphylococcus sp.): 4 µg/mL (≈ 2.79 µM)
MIC Coagulase Negative Staphylococcus (GC 4547) (Staphylococcus sp.): 4 µg/mL (≈ 2.79 µM)
MIC Coagulase Negative Staphylococcus (GC 4548) (Staphylococcus sp.): 4 µg/mL (≈ 2.79 µM)
MIC Coagulase Negative Staphylococcus (GC 4549) (Staphylococcus sp.): 4 µg/mL (≈ 2.79 µM)
MIC Coagulase Negative Staphylococcus (GC 4551) (Staphylococcus sp.): 4 µg/mL (≈ 2.79 µM)
MIC Coagulase Negative Staphylococcus (GC 6257) (Staphylococcus sp.): 4 µg/mL (≈ 2.79 µM)
SMILES: CC(c1ccccc1)C1NC(=O)CNC(=O)C(CO)NC(=O)C(C(O)C2CNC(=N)N2C2OC(CO)C(O)C(O)C2O)NC(=O)C(C(O)C2CNC(=N)N2)NC(=O)C(Cc2ccc(OC3OC(CO)C(OC4OC5COC6(CCC(C(C)(C)C)CC6)OC5C(O)C4O)C(O)C3O)cc2)NC1=O (stereo not drawn) [Example 208]
MIC Staphylococcus haemolyticus (GC 4546) (Staphylococcus sp.): 4 µg/mL (≈ 2.79 µM)
